Data published in US5618844A, “Hydroxamic acid and carboxylic acid derivatives, process for their preparation and use thereof” (Sanofi S.A., priority 1995, dated 1997).

Legend:
Type in all cases: biochemical
[1] = target: T1, Human Fibroblast Collagenase (Homo sapiens, UniProt P03956); test: inhibition of recombinant MMP, peptide substrate assay with fluorescamine detection (HFC); settings: calculated from measured percent inhibition using Km, assuming competitive inhibition; Met1-Pro250 proenzyme, activated with p-aminophenylmercury
T1 construct: All active MMPs are purified by gel filtration; made in house
T1 sequence (P03956 100-269 limits assumed): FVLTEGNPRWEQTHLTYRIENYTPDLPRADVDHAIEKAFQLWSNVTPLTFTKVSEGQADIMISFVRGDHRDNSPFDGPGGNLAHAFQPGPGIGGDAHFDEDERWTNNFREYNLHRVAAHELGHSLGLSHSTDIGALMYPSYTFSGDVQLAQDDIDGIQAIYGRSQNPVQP

[2] = target: T2, Human Neutrophil Collagenase (Homo sapiens, UniProt P22894); test: inhibition of recombinant MMP, peptide substrate assay with fluorescamine detection (HNC); settings: calculated from measured percent inhibition using Km, assuming competitive inhibition; Met100-Gly262
T2 construct: expressed as mature enzymes with C-terminal truncations, Phe83-Thr260 and Met100-Gly262, respectively; made in house
T2 sequence (P22894 100-262): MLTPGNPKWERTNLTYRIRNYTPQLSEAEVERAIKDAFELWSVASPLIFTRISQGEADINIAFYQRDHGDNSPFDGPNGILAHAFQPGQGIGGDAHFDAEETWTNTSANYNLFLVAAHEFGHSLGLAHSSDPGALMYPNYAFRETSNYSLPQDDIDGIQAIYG

[3] = target: T3, Human Fibroblast Stromelysin (Homo sapiens, UniProt P08254); test: inhibition of recombinant MMP, peptide substrate assay with fluorescamine detection (HFS)
T3 construct: expressed as mature enzymes with C-terminal truncations, Phe83-Thr260 and Met100-Gly262, respectively; made in house
T3 sequence (P08254 100-277): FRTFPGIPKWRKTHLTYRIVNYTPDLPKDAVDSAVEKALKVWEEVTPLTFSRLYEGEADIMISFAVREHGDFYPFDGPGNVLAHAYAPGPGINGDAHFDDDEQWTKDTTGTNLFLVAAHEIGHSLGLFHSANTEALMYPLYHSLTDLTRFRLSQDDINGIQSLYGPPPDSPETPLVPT

| SMILES | Ki [1] [nM] | Ki [2] [nM] | Ki [3] [nM] |
| --- | --- | --- | --- |
| CNC(=O)[C@H](Cc1ccccc1)NC(=O)[C@H](CCCCOCc1ccccc1)CC(=O)NO [Example 2, N-[(2R)-2-[2'-(Hydroxyamino)-2'(oxo)ethyl]-6-(phenylmethoxy)hexanoyl]-L-phenylalanine N-methylamide] | 1450 | – | – |
| CCCC(=O)NCCCC[C@H](CC(=O)NO)C(=O)N[C@@H](Cc1ccccc1)C(=O)NC [Example 12] | 1600 | 120 | – |
| CNC(=O)[C@@H](NC(=O)[C@H](CCCCOc1cccc(C)c1)CC(=O)O)C(C)(C)C [Example 19, (2S)-N-2'-[(2'R)-2'-(carboxymethyl)-6'-(3-methylphenoxy)hexanoyl]amino-3,3-dimethylbutanoic acid N-methylamide] | 1800 | – | 220 |
| CNC(=O)[C@@H](NC(=O)[C@H](CCCCOc1ccc(C)cc1)CC(=O)NO)C(C)(C)C [Example 16, (2S)-N-2'-[(2'R)-2'-[2"-(Hydroxyamino)-2"-(oxo)ethyl]-6'-(4-methylphenoxy)hexanoyl]amino-3,3-dimethylbutanoic acid N-methylamide] | 14 | – | – |
| CNC(=O)[C@H](Cc1ccccc1)NC(=O)[C@H](CCCCCOCc1ccccc1)CC(=O)NO [Example 11, N-[(2R)-2-[2'-(Hydroxyamino)-2'-(oxo)ethyl]-7-(phenylmethoxy)heptanoyl]-L-phenylalanine N-methylamide] | 920 | 4 | – |
| CCCNC(=O)CCC[C@H](CC(=O)NO)C(=O)N[C@@H](Cc1ccccc1)C(=O)NC [Example 5, N-[(2R)-2-[2'-(Hydroxyamino)-2'-(oxo)ethyl]-6-(propylamino)-6-(oxo)hexanoyl]-L-phenylalanine N-methylamide] | 5100 | < 2 | – |
| CNC(=O)[C@@H](NC(=O)[C@H](CCCCO)CC(=O)NO)C(C)(C)C [Example 9, (2S)-N-2-[(2'R)-2'-[2"-(Hydroxyamino)-2"-(oxo)ethyl]-6'-(hydroxy)hexanoyl]amino-3,3-dimethylbutanoic acid N-methylamide] | 27 | 17 | 5000 |
| CNC(=O)[C@H](Cc1ccccc1)NC(=O)[C@H](CCCCOc1ccccc1)CC(=O)NO [Example 13, N-[(2R)-2-[2'-(Hydroxyamino)-2'-(oxo)ethyl]-6-(phenoxy)-hexanoyl]-L-phenylalanine N-methylamide] | 8 | – | – |
| CNC(=O)[C@@H](NC(=O)[C@H](CCCCOc1ccc(Cl)cc1)CC(=O)NO)C(C)(C)C [Example 17, (2S)-N-2'-[(2'R)-2'-[2"-(Hydroxyamino)-2"-(oxo)ethyl]-6'-(4-chlorophenoxy)hexanoyl]amino-3,3-dimethylbutanoic acid N-methylamide] | 21 | – | – |
| CNC(=O)[C@@H](NC(=O)[C@H](CCCC(=O)NCCc1ccccc1)CC(=O)NO)C(C)(C)C [Example 15, (2S)-N-2'-[(2'R)-2'-[2"-(Hydroxyamino)-2"-(oxo)ethyl]-6'-(2-phenethylamino)-6' (oxo)hexanoyl]amino-3,3-dimethylbutanoic acid N-methylamide] | 35 | 16 | 26 |
| CNC(=O)[C@H](Cc1ccccc1)NC(=O)[C@H](CCCC(C)O)CC(=O)NO (stereo partly drawn) [Example 6, N-[(2R)-2-[2'-(Hydroxyamino)-2'-(oxo)ethyl]-(6RS)-6-(hydroxy)heptanoyl]-L-phenylalanine N-methylamide] | 150 | 20 | 1500 |
| CNC(=O)[C@H](Cc1ccccc1)NC(=O)[C@H](CCCCO)CC(=O)NO [Example 3, N-[(2R)-2-[2'-(hydroxyamino)-2'-(oxo)ethyl]-6-(hydroxy)hexanoyl]-L-phenylalanine N-methylamide] | 30 | 7 | – |
| CNC(=O)[C@H](Cc1ccccc1)NC(=O)[C@H](CCCOCc1ccccc1)CC(=O)NO [Example 10, N-[(2R)-2-[2'-(Hydroxyamino)-2'-(oxo)ethyl]-5-(phenylmethoxy)pentanoyl]-L-phenylalanine N-methylamide] | 2270 | – | – |
| CNC(=O)[C@@H](NC(=O)[C@H](CCCCOCc1ccccc1)CC(=O)NO)C(C)(C)C [Example 8, (2S)-N-2-[(2'R)-2'-[2"-(Hydroxyamino)-2"-(oxo)ethyl]-6'-(phenylmethoxy)hexanoyl]amino-3,3-dimethylbutanoic acid N-methylamide] | 1400 | 5 | 57 |
| CNC(=O)[C@H](Cc1ccccc1)NC(=O)[C@H](CCCC(=O)O)CC(=O)NO [Example 4, N-[(2R)-2-[2'-(Hydroxyamino)-2'-(oxo)ethyl]-5-(carboxy)pentanoyl]-L-phenylalanine N-methylamide] | – | 270 | – |
